Reference: US7074789B2, “Kinase inhibitors” (Amgen Inc., priority 1999, dated 2006)

Experiments:
Type in all cases: biochemical
PDGFRB = target: T1, PDGFRB (Homo sapiens, UniProt P09619); test: Kinase inhibition assay (33P transfer), PDGFRB; conditions: read-out: PDGFRB-1
T1 construct: Kinases are expressed as either kinase domains or full length constructs; made in house

IGFR-1 = target: T2, IGFR-1 (Homo sapiens, UniProt P08069); test: Kinase inhibition assay (33P transfer), IGFR-1; conditions: Table 2, class symbols A-E
T2 construct: Kinases are expressed as either kinase domains or full length constructs; made in house

EGFR = target: T3, EGFR (Homo sapiens, UniProt P00533); test: Kinase inhibition assay (33P transfer), EGFR; conditions: Table 2, class symbols A-E; read-out: EGFR-1
T3 construct: Kinases are expressed as either kinase domains or full length constructs; made in house
Outline: (§1)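 Kinase domains or full-length enzymes, GST- or polyHis-tagged, were expressed in E. coli or baculovirus High Five cells and affinity-purified. Transfer of 33PO4 from ATP onto plate-bound poly(Glu,Tyr) 4:1 or poly(Arg,Ser) 3:1 was counted by liquid scintillation after a 0.5% phosphoric acid wash. IC50 = concentration halving incorporation.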

c-Met = target: T4, c-Met (Homo sapiens, UniProt P08581); test: Kinase inhibition assay (33P transfer), c-Met; conditions: Table 2, class symbols A-E; read-out: Met-1
T4 construct: Kinases are expressed as either kinase domains or full length constructs; made in house
Outline: as §1

AKT = target: T5, AKT (Homo sapiens, UniProt Q9Y243); test: Kinase inhibition assay (33P transfer), AKT; conditions: Table 2, class symbols A-E; read-out: AKT3-1
T5 construct: Kinases are expressed as either kinase domains or full length constructs; made in house
Outline: (§2)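 Measured by scintillation: radiolabelled phosphate added by tagged recombinant kinases to poly(Glu,Tyr) 4:1 or poly(Arg,Ser) 3:1 attached to microtiter wells, counted once free label was washed away with 0.5% phosphoric acid.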

Itk = target: T6, Itk (Homo sapiens, UniProt Q08881); test: Kinase inhibition assay (33P transfer), Itk; conditions: Table 3, class symbols; read-out: Itk-1
T6 construct: Kinases are expressed as either kinase domains or full length constructs; made in house
T6 sequence (Q08881 1-620): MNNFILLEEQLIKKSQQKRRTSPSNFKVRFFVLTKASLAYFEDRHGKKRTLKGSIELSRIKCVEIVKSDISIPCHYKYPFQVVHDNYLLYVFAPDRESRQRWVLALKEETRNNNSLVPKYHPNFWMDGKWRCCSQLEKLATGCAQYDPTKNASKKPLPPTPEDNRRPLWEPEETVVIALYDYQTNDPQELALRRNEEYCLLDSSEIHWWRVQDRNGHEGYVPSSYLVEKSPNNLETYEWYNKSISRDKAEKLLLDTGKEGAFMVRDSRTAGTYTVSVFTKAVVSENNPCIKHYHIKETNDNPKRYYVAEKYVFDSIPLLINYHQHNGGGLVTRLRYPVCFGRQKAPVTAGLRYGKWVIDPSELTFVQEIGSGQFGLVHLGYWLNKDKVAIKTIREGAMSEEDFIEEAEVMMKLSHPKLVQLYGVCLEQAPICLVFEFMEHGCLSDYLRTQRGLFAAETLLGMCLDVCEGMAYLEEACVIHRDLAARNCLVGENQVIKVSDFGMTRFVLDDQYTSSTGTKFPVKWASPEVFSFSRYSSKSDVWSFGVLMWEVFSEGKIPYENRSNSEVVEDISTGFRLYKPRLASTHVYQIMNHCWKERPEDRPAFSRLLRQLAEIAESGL
Outline: as §1

ErbB2 = target: T7, ErbB2 (Homo sapiens, UniProt P04626); test: Kinase inhibition assay (33P transfer), ErbB2; conditions: read-out: ErbB2-2
T7 construct: Kinases are expressed as either kinase domains or full length constructs; made in house
Outline: as §1

Lck = target: T8, Lck (Homo sapiens, UniProt P06239); test: Kinase inhibition assay (33P transfer), Lck; conditions: Table 3, class symbols; read-out: Lck-1
T8 construct: Kinases are expressed as either kinase domains or full length constructs; made in house
Outline: as §2

Kdr = target: T9, Kdr (Homo sapiens, UniProt P35968); test: Kinase inhibition assay (33P transfer), Kdr; conditions: Table 3, class symbols; read-out: KDR-1
T9 construct: Kinases are expressed as either kinase domains or full length constructs; made in house
Outline: as §2

Zap-70 = target: T10, Zap-70 (Homo sapiens, UniProt P43403); test: Kinase inhibition assay (33P transfer), Zap-70; conditions: Table 3, class symbols; read-out: Zap-1
T10 construct: Kinases are expressed as either kinase domains or full length constructs; made in house
T10 sequence (P43403 1-619): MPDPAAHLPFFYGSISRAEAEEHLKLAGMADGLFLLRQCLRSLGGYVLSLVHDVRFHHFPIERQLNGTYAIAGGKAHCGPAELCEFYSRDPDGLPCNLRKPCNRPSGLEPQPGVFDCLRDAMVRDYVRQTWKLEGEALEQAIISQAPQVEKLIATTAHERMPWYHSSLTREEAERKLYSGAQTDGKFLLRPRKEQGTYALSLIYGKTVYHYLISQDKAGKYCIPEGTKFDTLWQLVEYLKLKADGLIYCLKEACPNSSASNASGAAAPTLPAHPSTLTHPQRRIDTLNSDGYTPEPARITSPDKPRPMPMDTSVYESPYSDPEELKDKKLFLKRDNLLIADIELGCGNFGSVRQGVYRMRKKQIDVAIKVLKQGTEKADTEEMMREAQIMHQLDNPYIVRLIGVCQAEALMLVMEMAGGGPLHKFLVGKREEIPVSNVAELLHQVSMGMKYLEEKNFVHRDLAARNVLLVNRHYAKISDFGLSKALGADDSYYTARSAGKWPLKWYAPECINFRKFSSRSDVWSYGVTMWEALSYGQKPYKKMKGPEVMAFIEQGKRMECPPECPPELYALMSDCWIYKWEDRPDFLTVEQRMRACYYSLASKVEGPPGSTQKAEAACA
Outline: as §2

T1 sequence (P09619 33-1106, species assumed): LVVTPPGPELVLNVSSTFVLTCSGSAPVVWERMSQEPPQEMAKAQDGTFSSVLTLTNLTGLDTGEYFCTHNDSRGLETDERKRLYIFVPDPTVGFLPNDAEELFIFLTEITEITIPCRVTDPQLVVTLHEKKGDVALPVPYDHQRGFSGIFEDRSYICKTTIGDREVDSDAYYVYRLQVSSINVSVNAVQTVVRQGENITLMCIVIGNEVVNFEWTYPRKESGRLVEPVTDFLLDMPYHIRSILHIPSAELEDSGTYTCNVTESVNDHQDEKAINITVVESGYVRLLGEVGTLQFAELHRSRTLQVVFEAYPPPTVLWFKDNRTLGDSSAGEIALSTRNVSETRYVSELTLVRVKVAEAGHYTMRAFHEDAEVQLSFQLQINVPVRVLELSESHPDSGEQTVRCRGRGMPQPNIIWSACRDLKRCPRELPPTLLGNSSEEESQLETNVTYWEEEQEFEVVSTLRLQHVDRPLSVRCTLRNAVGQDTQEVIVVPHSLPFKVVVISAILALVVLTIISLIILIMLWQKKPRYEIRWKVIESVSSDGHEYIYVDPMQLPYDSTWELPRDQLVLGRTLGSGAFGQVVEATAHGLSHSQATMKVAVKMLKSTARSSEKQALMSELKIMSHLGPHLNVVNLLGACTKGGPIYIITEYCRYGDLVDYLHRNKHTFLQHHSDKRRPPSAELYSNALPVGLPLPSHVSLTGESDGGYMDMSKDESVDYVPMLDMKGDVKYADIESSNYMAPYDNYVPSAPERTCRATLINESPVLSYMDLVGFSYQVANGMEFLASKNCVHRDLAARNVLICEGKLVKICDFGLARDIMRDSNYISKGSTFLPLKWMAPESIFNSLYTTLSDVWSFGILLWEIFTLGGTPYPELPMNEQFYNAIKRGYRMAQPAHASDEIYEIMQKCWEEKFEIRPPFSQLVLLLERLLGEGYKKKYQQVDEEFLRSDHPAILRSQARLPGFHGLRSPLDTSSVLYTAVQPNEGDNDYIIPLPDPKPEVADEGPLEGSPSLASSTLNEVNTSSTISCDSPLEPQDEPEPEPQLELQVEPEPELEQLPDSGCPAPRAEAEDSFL
T4 sequence (P08581 25-1390): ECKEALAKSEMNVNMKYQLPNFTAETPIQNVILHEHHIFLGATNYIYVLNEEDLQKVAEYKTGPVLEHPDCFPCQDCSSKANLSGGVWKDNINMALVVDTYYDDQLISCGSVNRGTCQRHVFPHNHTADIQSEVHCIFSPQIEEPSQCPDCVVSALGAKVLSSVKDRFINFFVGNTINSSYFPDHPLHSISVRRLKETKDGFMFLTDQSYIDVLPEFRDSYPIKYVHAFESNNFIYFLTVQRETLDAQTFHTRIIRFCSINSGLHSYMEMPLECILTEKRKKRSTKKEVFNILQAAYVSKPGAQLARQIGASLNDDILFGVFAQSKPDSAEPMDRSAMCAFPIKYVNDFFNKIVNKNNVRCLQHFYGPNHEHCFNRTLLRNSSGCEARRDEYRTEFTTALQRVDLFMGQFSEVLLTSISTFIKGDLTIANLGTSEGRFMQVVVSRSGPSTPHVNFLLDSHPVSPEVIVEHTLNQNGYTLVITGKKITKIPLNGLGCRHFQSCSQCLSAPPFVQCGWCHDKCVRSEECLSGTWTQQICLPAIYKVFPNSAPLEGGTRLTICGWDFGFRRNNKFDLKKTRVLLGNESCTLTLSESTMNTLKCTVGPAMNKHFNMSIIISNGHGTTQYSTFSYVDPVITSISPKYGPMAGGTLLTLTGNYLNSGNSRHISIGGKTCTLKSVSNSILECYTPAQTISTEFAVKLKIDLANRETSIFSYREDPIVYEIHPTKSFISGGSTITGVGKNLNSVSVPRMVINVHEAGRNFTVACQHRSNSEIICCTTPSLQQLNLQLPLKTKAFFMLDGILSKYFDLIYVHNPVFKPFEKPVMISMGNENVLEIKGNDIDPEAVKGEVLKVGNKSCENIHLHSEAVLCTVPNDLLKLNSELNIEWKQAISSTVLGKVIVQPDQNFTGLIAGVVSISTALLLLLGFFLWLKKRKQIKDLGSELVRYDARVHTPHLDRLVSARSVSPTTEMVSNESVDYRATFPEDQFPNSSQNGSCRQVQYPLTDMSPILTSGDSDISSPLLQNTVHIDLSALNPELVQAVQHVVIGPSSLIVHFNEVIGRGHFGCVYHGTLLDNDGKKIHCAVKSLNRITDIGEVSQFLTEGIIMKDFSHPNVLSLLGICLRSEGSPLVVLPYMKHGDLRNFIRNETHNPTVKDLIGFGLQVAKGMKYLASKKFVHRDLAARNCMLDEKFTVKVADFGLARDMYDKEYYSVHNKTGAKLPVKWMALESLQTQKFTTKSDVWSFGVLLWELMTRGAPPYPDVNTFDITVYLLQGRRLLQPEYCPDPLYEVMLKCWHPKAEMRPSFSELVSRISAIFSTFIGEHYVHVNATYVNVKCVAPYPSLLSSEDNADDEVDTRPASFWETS
T7 sequence (P04626 23-1255, species assumed): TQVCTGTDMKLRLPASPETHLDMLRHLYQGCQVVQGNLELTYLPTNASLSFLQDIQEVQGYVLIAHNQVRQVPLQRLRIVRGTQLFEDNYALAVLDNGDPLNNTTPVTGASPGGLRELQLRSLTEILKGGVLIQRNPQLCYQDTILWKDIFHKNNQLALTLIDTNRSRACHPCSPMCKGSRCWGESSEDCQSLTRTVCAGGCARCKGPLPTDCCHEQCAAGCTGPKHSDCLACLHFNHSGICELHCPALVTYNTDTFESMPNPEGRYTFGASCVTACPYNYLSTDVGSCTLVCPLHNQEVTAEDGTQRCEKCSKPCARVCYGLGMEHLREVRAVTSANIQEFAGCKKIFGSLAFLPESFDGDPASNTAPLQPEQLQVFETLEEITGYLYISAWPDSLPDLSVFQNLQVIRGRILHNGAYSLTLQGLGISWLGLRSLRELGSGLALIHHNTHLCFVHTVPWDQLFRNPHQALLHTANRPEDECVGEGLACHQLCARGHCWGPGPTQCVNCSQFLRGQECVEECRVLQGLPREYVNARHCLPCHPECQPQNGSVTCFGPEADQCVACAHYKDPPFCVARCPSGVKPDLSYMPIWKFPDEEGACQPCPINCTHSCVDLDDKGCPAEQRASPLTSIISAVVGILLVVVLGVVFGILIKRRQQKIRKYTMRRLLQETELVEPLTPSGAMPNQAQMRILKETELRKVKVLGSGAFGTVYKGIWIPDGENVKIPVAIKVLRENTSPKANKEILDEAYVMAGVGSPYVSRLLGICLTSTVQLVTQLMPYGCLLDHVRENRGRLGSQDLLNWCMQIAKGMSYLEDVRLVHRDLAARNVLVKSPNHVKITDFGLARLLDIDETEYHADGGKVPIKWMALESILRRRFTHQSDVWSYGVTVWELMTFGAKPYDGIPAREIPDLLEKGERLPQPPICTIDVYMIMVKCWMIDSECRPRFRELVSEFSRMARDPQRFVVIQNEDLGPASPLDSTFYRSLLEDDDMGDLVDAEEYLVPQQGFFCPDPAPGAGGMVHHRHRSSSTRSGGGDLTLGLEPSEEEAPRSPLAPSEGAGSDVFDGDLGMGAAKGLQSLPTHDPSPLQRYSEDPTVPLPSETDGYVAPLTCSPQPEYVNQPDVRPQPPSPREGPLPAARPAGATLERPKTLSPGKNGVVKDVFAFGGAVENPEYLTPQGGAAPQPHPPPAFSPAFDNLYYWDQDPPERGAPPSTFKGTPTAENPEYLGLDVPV
T5 sequence (Q9Y243 whole entry, the tested form may be a part): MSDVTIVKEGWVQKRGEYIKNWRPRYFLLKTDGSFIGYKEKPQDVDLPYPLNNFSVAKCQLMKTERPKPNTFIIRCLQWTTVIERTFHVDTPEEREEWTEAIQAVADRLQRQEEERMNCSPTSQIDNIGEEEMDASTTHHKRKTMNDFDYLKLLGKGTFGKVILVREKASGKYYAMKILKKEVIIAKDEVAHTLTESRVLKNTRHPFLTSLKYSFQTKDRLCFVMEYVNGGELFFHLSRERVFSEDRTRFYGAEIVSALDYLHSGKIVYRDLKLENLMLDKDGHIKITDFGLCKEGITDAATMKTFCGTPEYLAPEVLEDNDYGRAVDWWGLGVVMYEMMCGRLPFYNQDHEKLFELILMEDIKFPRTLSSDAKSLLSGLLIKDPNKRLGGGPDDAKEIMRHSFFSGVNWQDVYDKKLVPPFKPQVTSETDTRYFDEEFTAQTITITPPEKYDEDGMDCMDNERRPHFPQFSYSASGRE
T8 sequence (P06239 whole entry, species assumed, the tested form may be a part): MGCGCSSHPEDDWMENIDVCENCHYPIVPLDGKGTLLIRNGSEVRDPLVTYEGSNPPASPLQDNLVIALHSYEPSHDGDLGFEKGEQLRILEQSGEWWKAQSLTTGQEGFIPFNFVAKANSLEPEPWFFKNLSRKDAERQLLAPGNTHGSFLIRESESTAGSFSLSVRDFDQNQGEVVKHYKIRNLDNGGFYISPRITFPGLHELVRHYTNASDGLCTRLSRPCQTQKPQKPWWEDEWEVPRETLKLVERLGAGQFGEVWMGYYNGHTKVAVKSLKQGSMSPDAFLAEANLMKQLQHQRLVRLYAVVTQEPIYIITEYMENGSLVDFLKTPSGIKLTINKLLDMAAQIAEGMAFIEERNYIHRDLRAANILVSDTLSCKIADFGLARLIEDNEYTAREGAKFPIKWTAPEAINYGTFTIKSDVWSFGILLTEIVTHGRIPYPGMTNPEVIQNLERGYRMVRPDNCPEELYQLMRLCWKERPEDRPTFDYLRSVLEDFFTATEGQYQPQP

IC50 (PDGFRB) [µM]	IC50 (IGFR-1) [µM]	IC50 (EGFR) [µM]	IC50 (c-Met) [µM]	IC50 (AKT) [µM]	IC50 (Itk) [µM]	IC50 (ErbB2) [µM]	IC50 (Lck) [µM]	IC50 (Kdr) [µM]	IC50 (Zap-70) [µM]	Compound
< 1.05	< 1.05	1.05 to 6.31	> 11.8	> 11.8	1.05 to 6.31	6.31 to 9.2	1.05 to 6.31	1.05 to 6.31	> 11.8	COc1ccc(Nc2ncnc(Nc3ccc4ncsc4c3)n2)cc1OC [Compound 895]
9.1 to 11.7	< 1.04	6.24 to 9.1	9.1 to 11.7	> 11.7	1.04 to 6.24	6.24 to 9.1	1.04 to 6.24	< 1.04	> 11.7	Nc1nc2ccccc2n1-c1ncnc(Nc2cccc(Cn3ccnn3)c2)n1 [Compound 960]
4.59 to 6.7	> 8.61	> 8.61	> 8.61	> 8.61	> 8.61	0.765 to 4.59	> 8.61	> 8.61	> 8.61	COc1cc(Nc2ncnc(-c3cccnc3Nc3ccc(Oc4ccccc4)cc3)n2)cc(OC)c1OC [Compound 839]
1.06 to 6.38	1.06 to 6.38	< 1.06	1.06 to 6.38	> 12	1.06 to 6.38	1.06 to 6.38	1.06 to 6.38	< 1.06	> 12	CNC(=O)c1cccc(Nc2ncnc(Nc3cc(-c4ccco4)[nH]n3)n2)c1 [Compound 826]
> 9.03	> 9.03	> 9.03	> 9.03	> 9.03	> 9.03	> 9.03	> 9.03	> 9.03	> 9.03	COc1cc(Nc2ncnc(-c3cccnc3Nc3cccc(C(F)(F)F)c3)n2)cc(OC)c1OC [Compound 836]
0.815 to 4.89	< 0.815	0.815 to 4.89	< 0.815	> 9.17	4.89 to 7.14	0.815 to 4.89	< 0.815	0.815 to 4.89	> 9.17	COc1cc(Nc2ncnc(Nc3cc(-c4ccc(C(=O)N(C)C)cc4)n[nH]3)n2)cc(OC)c1OC [Compound 993]
1.03 to 6.19	< 1.03	1.03 to 6.19	1.03 to 6.19	> 11.6	1.03 to 6.19	1.03 to 6.19	< 1.03	6.19 to 9.03	> 11.6	COc1ccc(Nc2ncnc(Nc3cc(-c4ccc(C)cc4)n[nH]3)n2)c(C)c1 [Compound 1126]
< 0.835	> 9.4	> 9.4	> 9.4	> 9.4	> 9.4	> 9.4	> 9.4	0.835 to 5.01	> 9.4	COc1cc(Nc2ncnc(-c3cccnc3Nc3ccc(Cl)cc3C)n2)cc(OC)c1OC [Compound 834]
> 9.52	0.847 to 5.08	7.41 to 9.52	< 0.847	> 9.52	5.08 to 7.41	0.847 to 5.08	> 9.52	> 9.52	> 9.52	COC(=O)c1ccc(-c2cc(Nc3ncnc(Nc4ccc(N5CCOCC5)cc4)n3)[nH]n2)cc1 [Compound 807]
8.7 to 11.2	5.96 to 8.7	> 11.2	5.96 to 8.7	8.7 to 11.2	0.994 to 5.96	8.7 to 11.2	> 11.2	> 11.2	> 11.2	COC(=O)c1ccc(-c2cc(Nc3ncnc(NCc4cccnc4)n3)[nH]n2)cc1 [Compound 809]
> 10.6	8.27 to 10.6	> 10.6	> 10.6	> 10.6	8.27 to 10.6	> 10.6	> 10.6	> 10.6	> 10.6	COC(=O)c1ccc(-c2cc(Nc3ncnc(NCCN4CCNC4=O)n3)[nH]n2)cc1 [Compound 820]
> 8.53	> 8.53	> 8.53	> 8.53	> 8.53	> 8.53	> 8.53	> 8.53	> 8.53	> 8.53	COc1cc(Nc2ncnc(-c3cccnc3NC3CCN(Cc4ccccc4)CC3)n2)cc(OC)c1OC [Compound 847]
< 0.741	6.49 to 8.34	0.741 to 4.45	0.741 to 4.45	> 8.34	4.45 to 6.49	> 8.34	0.741 to 4.45	< 0.741	> 8.34	COc1cc(Nc2ncnc(-c3cccnc3Nc3ccccc3)n2)ccc1NC(=O)CCCN1CCNCC1 [Compound 1093]
0.871 to 5.22	> 9.79	> 9.79	> 9.79	> 9.79	0.871 to 5.22	> 9.79	> 9.79	> 9.79	> 9.79	CCOC(=O)c1cccc(Nc2ncnc(Nc3cc(-c4ccc(C(=O)OC)cc4)n[nH]3)n2)c1 [Compound 813]
–	> 11.8	1.05 to 6.28	< 1.05	> 11.8	> 11.8	> 11.8	> 11.8	> 11.8	> 11.8	COc1ccc(Nc2ncnc(N(C)c3ccc([N+](=O)[O-])cc3)n2)cc1OC [Compound 862]
> 11.7	> 11.7	> 11.7	> 11.7	> 11.7	> 11.7	–	> 11.7	> 11.7	> 11.7	COc1ccc(Nc2ncnc(NCc3ccc(C)c(Cl)c3)n2)cc1OC [Compound 793]
–	> 9.35	> 9.35	> 9.35	> 9.35	> 9.35	4.98 to 7.27	> 9.35	< 0.831	> 9.35	COC(=O)c1cccc(Nc2ncnc(-n3c(NCc4ccc(OC)cc4)nc4ccccc43)n2)c1 [Compound 1068]
–	4.91 to 7.16	< 0.819	< 0.819	> 9.21	4.91 to 7.16	< 0.819	0.819 to 4.91	< 0.819	> 9.21	CN(c1ccc2c(cnn2Cc2ccccc2)c1)c1ncnc(Nc2cccc(Cn3ccnn3)c2)n1 [Compound 677]
–	> 10.2	5.44 to 7.94	> 10.2	> 10.2	> 10.2	> 10.2	> 10.2	> 10.2	> 10.2	COc1ccc(Nc2ncnc(NCc3ncc(C(F)(F)F)cc3Cl)n2)cc1OC [Compound 858]
–	> 12.2	< 1.09	1.09 to 6.53	> 12.2	> 12.2	6.53 to 9.53	1.09 to 6.53	1.09 to 6.53	> 12.2	COc1ccc(N(C)c2ncnc(Nc3ccc(OC)c(OC)c3)n2)cc1 [Compound 863]
